Values of other authors in patent US20130171237A1, “ARIPIPRAZOLE COMPOSITIONS AND METHODS FOR ITS TRANSDERMAL DELIVERY” (priority 2010, published 2013).

solubility in water: practically insoluble in water
Compound: O=C1CCc2ccc(OCCCCN3CCN(c4cccc(Cl)c4Cl)CC3)cc2N1 [ARPZ, Aripiprazole]
